Experimental data reported in publication PMC12692861, “Biotin-Linked Ursolic Acid Conjugates as Selective Anticancer Agents and Target-Identification Tools for Cancer Therapy” (Molecules, 2025).

Columns and labels:
Experiment in all cases: Streptavidin pulldown proteomics (LC-MS/MS), 5637 cells
Settings in all cases: 5637, 50 µM
[1] = test system: ATP-binding cassette sub-family A; set-up: species or system human
Procedure: We used proteomics to identify potential molecular targets of 5c. A pulldown assay with streptavidin-agarose-coated magnetic beads was performed. Briefly, 5637 and MB49 cells were incubated with 50 µM 5c for 10 min and 1 h. After incubation, the cells were rinsed three times with cold phosphate-buffered saline (PBS), and cell lysates were prepared and clarified by centrifugation to remove cellular debris, including nuclei. The clarified lysates were incubated with streptavidin-coated magnetic beads to selectively bind biotinylated contents. Bound proteins were separated from unbound proteins through thorough bead washing. Proteins attached to the beads were eluted and analyzed on an Orbitrap Fusion Tribrid mass spectrometer (Thermo Scientific, New York, NY, USA) coupled with an Ultimate 3000 nano-UPLC system. Samples were trapped on a PepMap100 C18 trap column (5 µm, 0.3 × 5 mm) and separated on a PepMap RSLC C18 column (2 µm, 75 µm × 150 mm) using a gradient from 2 to 40% acetonitrile with 0.1% formic acid over 120 min at […] and 40 °C. […] Proteins were identified and quantified based on peptide spectral matches (PSMs), and fold enrichment compared to controls was calculated to evaluate interaction strength. […]

ATP synthase subunit O = ATP synthase subunit O (Homo sapiens, UniProt P48047); format: binding
Procedure: (§1) We used proteomics to identify potential molecular targets of 5c. A pulldown assay with streptavidin-agarose-coated magnetic beads was performed. Briefly, 5637 and MB49 cells were incubated with 50 µM 5c for 10 min and 1 h. After incubation, the cells were rinsed three times with cold phosphate-buffered saline (PBS), and cell lysates were prepared and clarified by centrifugation to remove cellular debris, including nuclei. The clarified lysates were incubated with streptavidin-coated magnetic beads to selectively bind biotinylated contents. Bound proteins were separated from unbound proteins through thorough bead washing. Proteins attached to the beads were eluted and analyzed on an Orbitrap Fusion Tribrid mass spectrometer (Thermo Scientific, New York, NY, USA) coupled with an Ultimate 3000 nano-UPLC system. Samples were trapped on a PepMap100 C18 trap column (5 µm, 0.3 × 5 mm) and separated on a PepMap RSLC C18 column (2 µm, 75 µm × 150 mm) using a gradient from 2 to 40% acetonitrile with 0.1% formic acid over 120 min at […] and 40 °C. MS data were acquired in positive mode using data-dependent acquisition (DDA), with precursor scans at 120,000 FWHM (400–2000 m/z), and MS/MS scans in top-speed mode (3 s cycle) using HCD fragmentation (NCE 32%). Proteins were identified and quantified based on peptide spectral matches (PSMs), and fold enrichment compared to controls was calculated to evaluate interaction strength.
(§2) The 5637 and MB49 cells were cultured and treated with higher concentrations of 5c (50 µM) for short period of times (10 min & 60 min) followed by whole cell lysis (WCL) preparation of both treated and untreated cells using modified RIPA buffer [NaCl (100mM), TrisCl (20mM, pH 7.4), EDTA (10 mM), TritonX-100 (0.5%), Glycerol (5%), Protease inhibitor cocktail (1x)] with gentle continuous rotation. The protein content of each WCL was estimated using Pierce™ BCA Protein Assay kit (Thermo-Scientific # 23225). The 100 µL of resuspended Dynabeads™ MyOne™ Streptavidin C1 (Invitrogen # 65001) were washed with PBST (PBS with 0.01% Tween™20) in a magnet stand as recommended in the manufacturer’s instructions. The washed beads were incubated with 200 µg of each WCL in separate tubes at room temperature for 2 h in a gentle end-over-end mixing. After incubation, beads were washed 3–5 times with PBST (0.01% Tween-20) on a magnetic stand and beads were decanted by after spinning and magnetization. The samples were stored at −80 °C till further analysis using LC-MS/MS by the Proteomics and Mass Spectrometry Core Laboratory of Augusta University.

[2] = molecular target: ATP synthase subunit beta (Homo sapiens, UniProt P06576); format: binding
Procedure: as §1, §2

HSC 71 = HSC 71 (Homo sapiens, UniProt P11142); format: binding
Chain of HSC 71 (P11142 whole entry): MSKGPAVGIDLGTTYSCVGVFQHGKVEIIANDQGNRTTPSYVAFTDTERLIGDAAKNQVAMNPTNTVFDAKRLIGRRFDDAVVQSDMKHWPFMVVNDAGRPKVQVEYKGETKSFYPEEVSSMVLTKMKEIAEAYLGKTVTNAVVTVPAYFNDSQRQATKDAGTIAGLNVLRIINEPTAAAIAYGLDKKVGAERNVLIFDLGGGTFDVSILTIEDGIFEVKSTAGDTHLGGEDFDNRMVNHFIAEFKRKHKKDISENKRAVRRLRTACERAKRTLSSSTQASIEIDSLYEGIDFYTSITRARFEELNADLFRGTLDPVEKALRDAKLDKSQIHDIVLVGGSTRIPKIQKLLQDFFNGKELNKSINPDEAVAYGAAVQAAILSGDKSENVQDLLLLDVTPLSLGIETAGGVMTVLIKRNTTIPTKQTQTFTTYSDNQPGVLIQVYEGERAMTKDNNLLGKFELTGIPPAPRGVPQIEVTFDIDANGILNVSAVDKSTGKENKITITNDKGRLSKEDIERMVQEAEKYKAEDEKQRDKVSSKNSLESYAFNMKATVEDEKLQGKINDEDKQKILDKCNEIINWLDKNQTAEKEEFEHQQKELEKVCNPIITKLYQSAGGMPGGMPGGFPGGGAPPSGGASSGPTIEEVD
Procedure: as §1, §2

Histone H4 = Histone H4 (Homo sapiens, UniProt P62805); format: binding
Procedure: as §1, §2

HSP 90-beta (HSP90β) = HSP 90-beta (HSP90β) (Homo sapiens, UniProt P08238); format: binding
Chain of HSP 90-beta (HSP90β) (P08238 whole entry): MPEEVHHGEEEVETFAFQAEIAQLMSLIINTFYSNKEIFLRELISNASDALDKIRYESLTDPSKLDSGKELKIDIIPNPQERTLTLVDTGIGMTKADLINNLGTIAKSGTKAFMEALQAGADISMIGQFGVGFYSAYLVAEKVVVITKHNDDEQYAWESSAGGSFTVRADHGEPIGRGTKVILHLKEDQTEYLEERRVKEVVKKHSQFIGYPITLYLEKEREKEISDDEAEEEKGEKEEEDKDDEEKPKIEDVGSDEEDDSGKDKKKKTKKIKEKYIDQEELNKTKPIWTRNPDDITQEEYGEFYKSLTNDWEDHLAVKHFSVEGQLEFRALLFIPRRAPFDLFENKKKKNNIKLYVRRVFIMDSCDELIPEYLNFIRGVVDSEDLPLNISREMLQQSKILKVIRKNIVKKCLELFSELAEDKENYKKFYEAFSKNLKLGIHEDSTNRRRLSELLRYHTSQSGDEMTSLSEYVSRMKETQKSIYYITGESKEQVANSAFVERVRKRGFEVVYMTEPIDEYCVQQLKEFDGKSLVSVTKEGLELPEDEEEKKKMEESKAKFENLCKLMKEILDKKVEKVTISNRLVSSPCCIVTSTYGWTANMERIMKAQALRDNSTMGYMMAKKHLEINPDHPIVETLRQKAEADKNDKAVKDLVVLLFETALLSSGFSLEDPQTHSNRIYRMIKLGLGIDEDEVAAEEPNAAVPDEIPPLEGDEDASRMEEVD
Procedure: as §1, §2

[3] = molecular target: Rab-like protein 6 (RABL6) (Homo sapiens, UniProt Q3YEC7); format: binding
Chain of Rab-like protein 6 (RABL6) (Q3YEC7 whole entry): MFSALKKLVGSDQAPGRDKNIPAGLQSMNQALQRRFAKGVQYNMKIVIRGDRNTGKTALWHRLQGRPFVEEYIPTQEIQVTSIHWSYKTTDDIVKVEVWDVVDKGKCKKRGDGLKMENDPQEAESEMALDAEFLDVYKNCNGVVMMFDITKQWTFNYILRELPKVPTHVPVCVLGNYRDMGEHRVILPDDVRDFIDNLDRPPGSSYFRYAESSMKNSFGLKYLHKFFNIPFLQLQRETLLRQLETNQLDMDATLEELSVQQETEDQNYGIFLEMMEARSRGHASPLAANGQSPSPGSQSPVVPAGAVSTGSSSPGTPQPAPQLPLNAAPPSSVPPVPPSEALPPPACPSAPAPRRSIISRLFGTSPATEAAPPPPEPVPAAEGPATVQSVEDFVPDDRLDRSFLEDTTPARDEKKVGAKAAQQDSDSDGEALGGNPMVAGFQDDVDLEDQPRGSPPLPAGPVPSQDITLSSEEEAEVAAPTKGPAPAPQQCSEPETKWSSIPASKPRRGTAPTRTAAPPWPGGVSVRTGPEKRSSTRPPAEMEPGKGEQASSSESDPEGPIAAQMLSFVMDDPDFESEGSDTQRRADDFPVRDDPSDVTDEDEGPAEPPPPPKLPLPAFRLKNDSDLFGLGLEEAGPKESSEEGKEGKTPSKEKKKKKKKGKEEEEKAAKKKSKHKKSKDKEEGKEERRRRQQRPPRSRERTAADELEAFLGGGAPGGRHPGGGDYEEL
Procedure: as §1, §2

Filamin-A (FLNA) = Filamin-A (FLNA) (Homo sapiens, UniProt P21333); format: binding
Procedure: as §1, §2

[4] = molecular target: Elongation factor 1-beta (EF1β) (Homo sapiens, UniProt P24534); format: binding
Chain of Elongation factor 1-beta (EF1β) (P24534 whole entry): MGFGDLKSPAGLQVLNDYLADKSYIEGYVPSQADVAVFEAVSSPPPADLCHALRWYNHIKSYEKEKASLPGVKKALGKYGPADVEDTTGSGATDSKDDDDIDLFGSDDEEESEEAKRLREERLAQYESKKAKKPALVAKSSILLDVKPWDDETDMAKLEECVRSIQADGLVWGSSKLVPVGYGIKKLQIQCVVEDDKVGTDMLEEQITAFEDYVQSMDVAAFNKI
Procedure: as §1, §2

[5] = molecular target: Ribosomal L1 domain-containing protein 1 (RSL1D1) (Homo sapiens, UniProt O76021); format: binding
Procedure: as §1, §2

[6] = molecular target: Heterogeneous nuclear ribonucleoprotein U (HNRNPU) (Homo sapiens, UniProt Q00839); format: binding
Chain of Heterogeneous nuclear ribonucleoprotein U (HNRNPU) (Q00839 whole entry): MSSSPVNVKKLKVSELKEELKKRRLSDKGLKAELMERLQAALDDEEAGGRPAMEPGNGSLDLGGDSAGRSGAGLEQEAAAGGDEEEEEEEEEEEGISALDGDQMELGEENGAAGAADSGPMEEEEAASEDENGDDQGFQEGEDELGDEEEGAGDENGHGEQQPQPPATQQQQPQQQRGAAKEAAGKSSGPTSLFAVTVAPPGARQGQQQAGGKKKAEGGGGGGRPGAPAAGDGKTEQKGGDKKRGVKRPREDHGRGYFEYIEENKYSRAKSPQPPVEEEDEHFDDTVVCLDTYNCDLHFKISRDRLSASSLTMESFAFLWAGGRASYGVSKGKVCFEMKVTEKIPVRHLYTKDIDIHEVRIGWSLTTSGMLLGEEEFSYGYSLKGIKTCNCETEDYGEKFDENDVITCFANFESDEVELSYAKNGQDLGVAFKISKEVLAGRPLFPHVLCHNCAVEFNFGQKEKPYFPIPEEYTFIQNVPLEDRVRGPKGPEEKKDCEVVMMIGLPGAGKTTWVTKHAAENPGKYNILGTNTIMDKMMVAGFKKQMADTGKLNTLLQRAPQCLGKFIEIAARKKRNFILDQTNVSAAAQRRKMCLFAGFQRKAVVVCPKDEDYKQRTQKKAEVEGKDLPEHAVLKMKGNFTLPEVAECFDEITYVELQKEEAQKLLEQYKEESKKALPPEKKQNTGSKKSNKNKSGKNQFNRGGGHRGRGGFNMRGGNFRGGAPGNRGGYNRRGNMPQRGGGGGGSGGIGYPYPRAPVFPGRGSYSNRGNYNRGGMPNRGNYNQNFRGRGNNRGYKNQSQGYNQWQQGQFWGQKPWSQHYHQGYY
Procedure: as §1, §2

[7] = molecular target: Eukaryotic translation initiation factor 5B (eIF5B) (Homo sapiens, UniProt O60841); format: binding
Procedure: as §1, §2

Histone H2B type 1-M = Histone H2B type 1-M (Homo sapiens, UniProt Q99879); format: binding
Procedure: as §1, §2

[8] = molecular target: T-complex protein 1 subunit theta (Homo sapiens, UniProt P50990); format: binding
Procedure: as §1, §2

HSP 90-alpha (HSP90α) = HSP 90-alpha (HSP90α) (Homo sapiens, UniProt P07900); format: binding
Procedure: as §1, §2

[9] = molecular target: D-3-phosphoglycerate dehydrogenase (Homo sapiens, UniProt O43175); format: binding
Chain of D-3-phosphoglycerate dehydrogenase (O43175 whole entry): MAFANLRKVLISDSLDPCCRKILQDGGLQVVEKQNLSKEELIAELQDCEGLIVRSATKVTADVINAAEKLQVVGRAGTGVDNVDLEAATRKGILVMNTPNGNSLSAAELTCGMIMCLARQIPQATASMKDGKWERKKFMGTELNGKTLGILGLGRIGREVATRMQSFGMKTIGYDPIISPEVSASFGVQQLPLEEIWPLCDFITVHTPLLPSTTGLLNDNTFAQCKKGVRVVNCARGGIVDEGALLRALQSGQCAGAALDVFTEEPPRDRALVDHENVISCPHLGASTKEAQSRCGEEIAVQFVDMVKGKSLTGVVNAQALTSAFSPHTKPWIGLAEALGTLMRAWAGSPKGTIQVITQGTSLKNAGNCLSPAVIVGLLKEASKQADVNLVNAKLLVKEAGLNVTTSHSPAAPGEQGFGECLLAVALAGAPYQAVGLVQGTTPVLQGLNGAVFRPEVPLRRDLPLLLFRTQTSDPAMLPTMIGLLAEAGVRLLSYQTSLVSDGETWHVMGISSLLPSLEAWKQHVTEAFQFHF
Procedure: as §1, §2

Histone H2A.Z = Histone H2A.Z (Homo sapiens, UniProt P0C0S5); format: binding
Chain of Histone H2A.Z (P0C0S5 whole entry): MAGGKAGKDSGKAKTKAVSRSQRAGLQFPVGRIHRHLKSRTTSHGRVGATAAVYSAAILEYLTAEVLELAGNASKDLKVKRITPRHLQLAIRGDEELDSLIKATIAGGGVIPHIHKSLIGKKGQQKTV
Procedure: as §1, §2

[10] = molecular target: Histone H2A type 2-C (HIST2H2AC) (Homo sapiens, UniProt Q16777); format: binding
Procedure: as §1, §2

[11] = molecular target: Splicing factor U2AF 65 kDa subunit (U2AF65) (Homo sapiens, UniProt P26368); format: binding
Chain of Splicing factor U2AF 65 kDa subunit (U2AF65) (P26368 whole entry, one chain of several): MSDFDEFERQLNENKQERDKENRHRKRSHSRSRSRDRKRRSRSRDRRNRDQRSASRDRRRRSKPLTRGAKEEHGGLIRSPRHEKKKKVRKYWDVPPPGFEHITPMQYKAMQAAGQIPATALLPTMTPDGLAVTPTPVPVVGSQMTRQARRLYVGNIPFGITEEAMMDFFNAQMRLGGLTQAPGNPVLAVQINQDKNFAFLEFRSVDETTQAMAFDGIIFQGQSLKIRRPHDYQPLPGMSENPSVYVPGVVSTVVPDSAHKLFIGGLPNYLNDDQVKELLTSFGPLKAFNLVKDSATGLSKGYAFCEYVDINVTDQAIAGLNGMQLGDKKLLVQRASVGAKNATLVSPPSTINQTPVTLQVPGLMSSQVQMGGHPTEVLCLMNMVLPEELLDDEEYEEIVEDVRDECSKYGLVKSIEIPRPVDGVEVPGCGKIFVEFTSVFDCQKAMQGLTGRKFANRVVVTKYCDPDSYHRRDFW
Procedure: as §1, §2

[12] = molecular target: Elongation factor 2 (eEF2) (Homo sapiens, UniProt P13639); format: binding
Procedure: as §1, §2

[13] = molecular target: RNA-binding protein 39 (RBM39) (Homo sapiens, UniProt Q14498)
Procedure: as §1, §2

[14] = molecular target: Poly(U)-binding-splicing factor 60 (PUF60) (Homo sapiens, UniProt Q9UHX1)
Chain of Poly(U)-binding-splicing factor 60 (PUF60) (Q9UHX1 whole entry): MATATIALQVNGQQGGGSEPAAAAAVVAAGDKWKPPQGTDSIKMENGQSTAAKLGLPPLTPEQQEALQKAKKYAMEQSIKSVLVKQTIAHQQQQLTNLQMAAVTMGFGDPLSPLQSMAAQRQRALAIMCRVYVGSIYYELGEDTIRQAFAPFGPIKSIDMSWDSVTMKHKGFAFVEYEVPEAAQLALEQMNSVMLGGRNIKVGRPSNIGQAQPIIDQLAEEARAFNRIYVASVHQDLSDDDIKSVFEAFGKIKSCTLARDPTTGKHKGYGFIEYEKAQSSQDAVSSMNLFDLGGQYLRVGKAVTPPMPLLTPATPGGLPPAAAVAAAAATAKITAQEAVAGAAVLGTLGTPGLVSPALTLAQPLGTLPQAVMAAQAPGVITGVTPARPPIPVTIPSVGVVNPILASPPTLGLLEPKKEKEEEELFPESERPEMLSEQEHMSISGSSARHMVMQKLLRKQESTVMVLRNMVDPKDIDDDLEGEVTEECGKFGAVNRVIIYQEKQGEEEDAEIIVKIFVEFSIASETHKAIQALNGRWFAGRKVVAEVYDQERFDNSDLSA
Procedure: as §1, §2

- Fold Change 10 min/Ctrl (ATP synthase subunit O): 3
- Fold Change 1 h/Ctrl (ATP synthase subunit O): 3
- Fold Change 10 min/Ctrl [2]: 3.29
- Fold Change 1 h/Ctrl [2]: 5
- Fold Change 10 min/Ctrl (HSC 71): 5.25
- Fold Change 1 h/Ctrl (HSC 71): 6.25
- Fold Change 10 min/Ctrl (Histone H4): 13.23
- Fold Change 1 h/Ctrl (Histone H4): 11.08
- Fold Change 10 min/Ctrl (HSP 90-beta (HSP90β)): 93
- Fold Change 1 h/Ctrl (HSP 90-beta (HSP90β)): 97
- Fold Change 10 min/Ctrl [3]: 1.33
- Fold Change 1 h/Ctrl [3]: 2.67
- Fold Change 10 min/Ctrl (Filamin-A (FLNA)): 16
- Fold Change 1 h/Ctrl (Filamin-A (FLNA)): 18
- Fold Change 10 min/Ctrl [4]: 2.35
- Fold Change 1 h/Ctrl [4]: 2.35
- Fold Change 10 min/Ctrl [5]: 5
- Fold Change 1 h/Ctrl [5]: 4
- Fold Change 10 min/Ctrl [6]: 4.33
- Fold Change 1 h/Ctrl [6]: 4.33
- Fold Change 10 min/Ctrl [7]: 32
- Fold Change 1 h/Ctrl [7]: 34
- Fold Change 10 min/Ctrl (Histone H2B type 1-M): 3.16
- Fold Change 1 h/Ctrl (Histone H2B type 1-M): 1.37
- Fold Change 10 min/Ctrl [8]: 14
- Fold Change 1 h/Ctrl [8]: 12
- Fold Change 10 min/Ctrl (HSP 90-alpha (HSP90α)): 119
- Fold Change 1 h/Ctrl (HSP 90-alpha (HSP90α)): 111
- Fold Change 10 min/Ctrl [9]: 15
- Fold Change 1 h/Ctrl [9]: 10
- Fold Change 10 min/Ctrl (Histone H2A.Z): 5.85
- Fold Change 1 h/Ctrl (Histone H2A.Z): 4.78
- Fold Change 10 min/Ctrl [10]: 3.48
- Fold Change 1 h/Ctrl [10]: 3.04
- Fold Change 10 min/Ctrl [11]: 14
- Fold Change 1 h/Ctrl [11]: 10
- Fold Change 10 min/Ctrl [12]: 44
- Fold Change 1 h/Ctrl [12]: 50
- Fold Change 10 min/Ctrl [13]: 3.5
- Fold Change 1 h/Ctrl [13]: 3
- Fold Change 10 min/Ctrl [14]: 6
- Fold Change 1 h/Ctrl [14]: 5
SMILES: CC1CCC2(C(=O)OCCCCOC(=O)CCCCC3SCC4NC(=O)NC43)CCC3(C)C(=CCC4C5(C)CCC(O)C(C)(C)C5CCC43C)C2C1C [Compound 5c, 4-((5-((3aS,4S,6aR)-2-Oxohexahydro-1H-thieno [3,4-d]imidazol-4-yl)pentanoyl)oxy) butyl 3-hydroxy-urs-12-en-28-oate]
- Fold Change 10 min/Ctrl [1]: 3
- Fold Change 1 h/Ctrl [1]: 5
